Assay results published in publication PMC5283653, “Structural aspects of nucleotide ligand binding by a bacterial 2H phosphoesterase” (PLoS ONE, 2017).
Where two headings read alike, the source gives them in different places.

Legend:
LigT [1] = biological target: T1, LigT (Escherichia coli, UniProt Z9E1N8ZL79); experiment: turnover to […]′-AMP seen in crystal; type: biochemical; conditions: 0.1 M Tris-HCl pH 7.4-7.5, 0.2 M MgCl2, PEG 8000; 5 mM ligand
T1 construct: N-terminal His6 tag with TEV site, tag cut with TEV protease; expressed in E. coli BL21(DE3); 20 kDa; monomer in solution

LigT [2] = biological target: T1, LigT; experiment: isothermal titration calorimetry; co-crystal structure; type: binding; conditions: 10 mM HEPES pH 7.5, 0.2 M NaCl, 0.1 mM TCEP, 25 °C, active site, read-out: dissociation constant

Nc1ncnc2c1ncn2[C@@H]1O[C@H](CO)[C@H]2OP(=O)(O)O[C@H]21 [2′,3′-cAMP]
turnover to 2′-AMP seen in crystal (LigT [1]): the reaction product is bound in the crystals grown in the presence of the substrate

Nc1ncnc2c1ncn2[C@@H]1O[C@H](CO)[C@@H](OP(=O)(O)O)[C@H]1O [3′-AMP]
Kd (LigT [2]): 180 µM

NC(=O)c1ccc[n+]([C@@H]2O[C@H](COP(=O)(O)OP(=O)(O)OC[C@H]3O[C@@H](n4cnc5c(N)ncnc54)[C@H](OP(=O)(O)O)[C@@H]3O)[C@@H](O)[C@H]2O)c1 [NADP^+]
Kd (LigT [2]; product analogue): 40 µM

Nc1ncnc2c1ncn2[C@@H]1O[C@H](COP(=O)(O)OP(=O)(O)OP(=O)(O)O)[C@@H](O)[C@H]1O [ATP]
Kd (LigT [2]; second crystal form 5LDP): 70 µM

Nc1ncnc2c1ncn2[C@@H]1O[C@H](CO)[C@@H](O)[C@H]1OP(=O)(O)O [2′-AMP]
Kd (LigT [2]; crystal grown with 2′,3′-cAMP): 140 µM
